Experimental data from patent US11331290B2, “Niclosamide for the treatment of cancer metastasis” (Max-Delbrück-Centrum für Molekulare Medizin in der …, priority 2011, dated 2022).

How the values were obtained:
S100A4 promoter = assay: High-throughput screening, S100A4 promoter-driven luciferase reporter; format: cell-based, human; settings: HCT116-S100A4p-LUC cells, 20-concentration rescreen, 2-fold dilutions from 100 μM, 24 h
Procedure: HCT116-S100A4p-LUC colon cancer cells stably expressing a human S100A4 promoter-driven luciferase reporter gene construct were screened with the Library of Pharmacologically Active Compounds (LOPAC; FIG. 1, A). The LOPAC Library represents a collection of 1280 well characterized small molecule inhibitors. […] In parallel, cell viability was determined using the Alamar blue assay to evaluate whether some of the inhibitory effects were caused by cytotoxicity (data not shown). […]
For high-throughput screening 2.5×10^3 cells per well of HCT116-S100A4p-LUC cells were seeded into white opaque 384-well plates (Perkin Elmer, Waltham, Mass.) using the BIOMEK 2000 automatic pipetting system (Beckman Coulter, Brea, Calif.). […] Following compound treatment, luciferase expression was determined using Britelite reagent (Perkin Elmer) in a Wallac Victor reader (Perkin Elmer). In parallel, cytotoxicity of the compounds was measured in clear polystyrene 384-well plates (Costar) by Alamar blue cytotoxicity assay (Sigma-Aldrich). […] Plates were then read on a Wallac Victor reader at an excitation wavelength of 530 nm and emission wavelength of 590 nm. For both luminescence and Alamar blue fluorescence data, eight vehicle control wells were averaged and test compound results (single well) expressed as percent of control. […]

[1] = humans, taken orally; cited from earlier work
SW620 cells = assay: Soft agar colony formation assay; format: cell-based, human; settings: 1 μM, 7 days
Procedure: (§1) Analysis of anchorage-independent cell proliferation was achieved by soft agar colony formation assay. A bottom layer containing 0.5% w/v agarose, RPMI-1640 medium, 10% FBS and 1 μM niclosamide or the respective amount of DMSO was added to a 6 cm Ø dish and incubated at room temperature under sterile conditions for 10 minutes. Onto the solidified bottom layer a top layer was added containing 8×10^3 cells, 0.33% w/v agarose, RPMI-1640 medium, 10% FBS and 1 μM niclosamide or the respective amount of DMSO. Cells were seeded as single cells into the soft agar and incubated in a humidified incubator at 37° C. and 5% CO2 for 7 days. Colony formation was visualized by 10× magnification for an overview and 40× magnification for single colonies in the Leica DM IL light microscope (Leica Microsystems). Colony quantification was achieved by counting cell colonies of more than 4 cells in 10 squares of […]. Colony formation experiments were repeated twice, each in triplicates.
(§2) (A) S100A4 expression under niclosamide treatment. Cells were treated with 1 μM niclosamide for 24 hours. S100A4 expression was analyzed with qRT-PCR and immunoblot. (B) Cell migration under niclosamide treatment. Migration rates of cells treated with 1 μM niclosamide for 24 hours were determined in a Boyden chamber assay values were normalized to solvent-treated SW620 cells. (C) Cell invasion under niclosamide treatment. Cells were seeded onto Matrigel covered transwells and treated with 1 μM niclosamide for 24 hours. Invaded cells in the lower chamber were counted and normalized to solvent-treated SW620 cells. Differences in solvent vs. niclosamide-treated cells were analyzed by Student's t test. Data represent mean±SE of at least two independent experiments each performed in triplicate. (D) Directed migration under niclosamide treatment. Wounds of 300 μM width were set in a 60% confluent monolayer of cells on day 1. Cells were treated daily with 1 μM niclosamide for 4 days. Microphotographs of day 4 are presented here with black lines indicating margins of the wound on day 1; scale bar represents 200 μM. Directed migration data shown are representatives of three independent experiments. (E) Adhesive cell proliferation under niclosamide treatment. Cells were treated daily with 1 μM niclosamide. The amount of viable cells per well was determined by MTT assay. (F) Anchorage-independent cell growth under niclosamide treatment. Cells were plated as single cells into 0.33% (w/v) agarose and treatment (solvent or 1 μM niclosamide) containing medium. After 7 days colonies were visualized by light microscopy at 10× (overview) and 40× (single colony) magnification. (G) Quantification of colonies formed. Number of colonies (of more than 4 cells) was counted and normalized to solvent-treated SW620 cells. Differences in solvent vs. niclosamide-treated cells were analyzed by Student's t test. Data represent mean mean±SE of at least two independent experiments each performed in duplicates.

DLD-1 cells = assay: Soft agar colony formation assay; format: cell-based, human; settings: 1 μM, 7 days
Procedure: as §1, §2

SW480 cells = assay: Soft agar colony formation assay; format: cell-based, human; settings: 1 μM, 7 days
Procedure: as §1, §2

LS174T cells = assay: Soft agar colony formation assay; format: cell-based, human; settings: 1 μM, 7 days
Procedure: as §1, §2

O=C(Nc1ccc([N+](=O)[O-])cc1Cl)c1cc(Cl)ccc1O [niclosamide, 2′,5-dichloro-4′-nitrosalicylanilide]
inhibition of reporter gene expression (S100A4 promoter): strongest candidate
side effects [1]: only slight side effects
anchorage-independent growth, colony size (SW620 cells): clearly smaller cell colonies
number of colonies, mean difference control vs niclosamide (SW620 cells): 96.4%
number of colonies, mean % (normalized to solvent-treated SW620 cells) (SW620 cells; solvent control 100.0%): 3.6%
anchorage-independent growth, colony size (DLD-1 cells): clearly smaller cell colonies
number of colonies, mean difference control vs niclosamide (DLD-1 cells): 72.5%
number of colonies, mean % (normalized to solvent-treated SW620 cells) (DLD-1 cells; solvent control 82.6%): 10.1%
anchorage-independent growth, colony size (SW480 cells): clearly smaller cell colonies
number of colonies, mean difference control vs niclosamide (SW480 cells): 63.8%
number of colonies, mean % (normalized to solvent-treated SW620 cells) (SW480 cells; solvent control 68.1%): 4.3%
anchorage-independent growth, colony size (LS174T cells): clearly smaller cell colonies
number of colonies, mean difference control vs niclosamide (LS174T cells): 74.6%
number of colonies, mean % (normalized to solvent-treated SW620 cells) (LS174T cells; solvent control 90.6%): 15.9%
